In US12681009B2, “Molecular target in cancer” (The Regents of the University of California, priority 2021, dated 2026):

Tests used:
[1] = biological target: T1, Musashi RNA Binding Protein 2 (MSI2) (Homo sapiens, UniProt Q96DH6); experiment: MSI2:NUMB-Biotin5′ RNA binding assay HTRF, 10-point duplicate dose response curves of 512 compounds (FIG. 14); details: 10-point duplicate curves, 100 μM to 5.6 nM, 3× dilution, MSI2 (His tag) 5 nM, NUMB-Biotin5′ RNA 1.25 nM, Streptavidin XL665 5 nM, His TB-Cryptate 0.6 nM, pH 7.3, read-out: MSI2 IC50 (normalized FRET ratio)
T1 construct: purchased LS Bio G2396
T1 sequence (Q96DH6 whole entry): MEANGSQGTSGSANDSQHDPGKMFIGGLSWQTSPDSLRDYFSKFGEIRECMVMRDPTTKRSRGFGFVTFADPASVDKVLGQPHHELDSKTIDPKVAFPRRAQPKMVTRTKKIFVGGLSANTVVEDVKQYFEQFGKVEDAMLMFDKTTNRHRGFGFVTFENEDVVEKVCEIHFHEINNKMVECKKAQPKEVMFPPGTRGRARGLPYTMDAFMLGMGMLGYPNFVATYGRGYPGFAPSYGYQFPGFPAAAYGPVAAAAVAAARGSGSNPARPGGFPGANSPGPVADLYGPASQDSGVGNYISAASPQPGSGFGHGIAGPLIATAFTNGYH
From the text: In some embodiments, a MSI2 binding assay was developed where streptavidin labeled with XL665 or d2 was used as the acceptor, and Terbium (Tb) cryptate was used as the donor. For example, in the MSI2 binding assay, NUMB RNA was biotinylated at the 5′ end to create NUMB-Biotin 5′ RNA, which was coupled to the XL665 or d2-labeled streptavidin acceptor through streptavidin-biotin interaction. The MSI2 protein was engineered to contain a His tag, which was coupled to the Tb cryptate donor through an anti-His antibody attached to the Tb cryptate. Due to the MSI2-NUMB RNA interaction, the XL665 or d2 acceptor was brought into proximity of the Tb cryptate donor, thus generating a detectable FRET signal. Parameters of the binding assay, including the concentrations of MSI2 and NUMB-Biotin 5′ RNA, were optimized. Thus, the interaction of the MSI2 protein to NUMB-Biotin 5′ RNA could create a detectable FRET signal that can be used for subsequent binding assays and screening for modulators of MSI2-RNA interactions.
Reagents and protein/peptide: MSI2-LS Bio G2396 (provided in 20 mM Tris-HCL pH 8.0, 150 mM NaCl, 10% glycerol, 1 mM DTT); U1A-LS Bio G19194-10 (provided in 16 mM HEPES, pH 7.6, 400 mM NaCl, 20% glycerol); NUMB 5′Biotin—(IDT); NUMB 5′—(IDT); U1A RNA 5′ Biotin—(IDT); U1A RNA 5′—(IDT); HEPES pH 7.3 (RNase/DNase free)—(Fisher—BP299); Molecular grade water (RNase/DNase free)—(Invitrogen-10977-95); DTT (molecular grade—RNase/DNase free)—(Promega-V3151); Pluronic F-127—(Sigma Aldrich SKU #P2443); NaCl (RNase/DNase free)—(Sigma—S3014); 6His Terbium (TB) Cryptate—(CisBio—61HI2TLA); Streptavidin XL665 (CisBio—610SAXLA); AlphaPlate-1536 well flat bottom plate, Light gray (Perkin Elmer #6004350); and AlphaScreen Histidine Detection Kit (Perkin Elmer, Cat. No. 6760619C) containing AlphaScreen Nickel Chelate Acceptor Beads (5 mg/ml), and AlphaScreen Streptavidin Donor Beads (5 mg/ml).
(§1) FIG. 6 illustrates the FRET assay principle for MSI2 and U1A. The NUMB RNA probe for MSI2 was selected based on prior scientific publications and has the following sequence: 5′[…]-Biotin (SEQ ID NO: 1) (Oncotarget, 8(63): 106587-106597 (2017). The RNA probe for U1A was designed based on an interaction study between U1A and RNA done by NMR (Structure 4(5): 621-631 (1996)) and has the following sequence: 5′[…]-Biotin (SEQ ID NO: 2). The underlined sequence represents the part which interacts with the protein, the sequence of AYYGCAC should fit into the groove of U1A according to the NMR studies. The remaining sequence without underline is a spacer. The assay developed provides robust TR-FRET readout.
IC50 analysis of 512 compounds selected from the confirmation screen (MSI2:NUMB-Biotin5′) screen was performed. The 512 compounds were run in duplicate 10-point dose response curve with a high concentration of 100 μM and a low concentration of 5.6 nM. The total volume of the assay was 8 μl and all steps except for ECHO dispense were performed on Tempest disperser. 80 nL of compounds in DMSO was dispensed in 10 point titrations of 3× dilutions with the t concentration of 100 μM and the bottom concentration of 5.6 nM from 10 mM stock using ECHO acoustic dispenser-duplicate curves on the same assay plate. 2 μL of assay buffer was added, 2 μL of MSI2 (4× Conc.) final concentration of 5 nM was added, and incubated for 30 minutes. […]

MSI2-RNA interaction = biological target: T2, MSI2-RNA interaction (Homo sapiens, UniProt Q96DH6); experiment: MSI2 TR-FRET assay, primary screen and triplicate confirmation; type: binding; details: identified by the method disclosed herein
T2 construct: purchased LS Bio G2396
T2 sequence (Q96DH6 whole entry): as above
Experimental: In some embodiments, inhibitory compounds of MSI2-RNA interactions were identified using the methods disclosed herein. In a primary screening of small molecule compound libraries using the MSI2 binding TR-FRET assay, 194,914 compounds were screened at 15 μM final concentration for induced inhibition of MSI2-RNA interaction. Hit compounds were selected with a cut-off of at least 30% inhibition. Subsequently, after analysis of donor- and acceptor-channels, and removal of potential detection artefacts, 1,391 compounds were selected and confirmed by MSI2 and U1A TR-FRET assays in triplicates and at 15 μM concentration (Table 1).
as §1
FIG. 7 illustrates the high throughput screening workflow. […] The hit cut-off criteria are >30% inhibition. The hit triaging is based on analysis of donor- and acceptor-channels, removal of potential detection artefacts. The hit confirmation is based on triplicate confirmation runs (15 μM) in MSI2 and U1A TR-FRET assays. The compound selection for dose-response is a dose-response testing in MSI2 and U1A to filter for compounds that have the drug potential. The hit selection for hit to lead (HTL) is based on QC on dose responsive hits SAR tractability, and model building for hit expansion.

[2] = biological target: T3, U1A protein and U1A target-Biotin5′ RNA (Homo sapiens, UniProt P09012); experiment: U1A:Target-CTRL RNA competition assay, HTRF (384 well plate); type: binding; details: competitor RNA titrated from 1000 nM, 2× dilution over 9 points; U1A 5 nM + U1A Target-Biotin5′ 1.25 nM
T3 construct: purchased LS Bio G19194-10
T3 sequence (P09012 whole entry, species assumed): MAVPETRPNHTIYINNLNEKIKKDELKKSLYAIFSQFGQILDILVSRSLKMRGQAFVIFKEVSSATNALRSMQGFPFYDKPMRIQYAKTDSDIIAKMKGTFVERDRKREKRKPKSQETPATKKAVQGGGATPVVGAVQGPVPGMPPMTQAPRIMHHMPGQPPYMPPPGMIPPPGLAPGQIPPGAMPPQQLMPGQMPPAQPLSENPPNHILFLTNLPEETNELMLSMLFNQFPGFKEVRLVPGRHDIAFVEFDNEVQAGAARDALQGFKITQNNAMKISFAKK
Experimental: (§2) MSI2: Numb/U1A:Target RNA Competition assay-HTRF (384 well plate): CisBio HTRF protocol was followed in a total assay volume of 20 μl. 5 μL of NUMB-CTRL RNA/Target-CTRL (4× Conc.) titrated in 10 point in 2× dilution, 5 μL of MSI2 protein/U1A protein (4× Conc.) final concentration of 5 nM was added to each well, 5 μL of NUMB-Biotin5′/Target-Biotin5′ RNA (4× Conc.) final concentration of 1.25 nM and Streptavidin XL665 acceptor (4×) final concentration of 5 nM were added, and incubated for 60 minutes at room temperature. 5 μL of 4×His TB cryptate, final concentration of 0.6 nM was added and incubated at room temperature for 60 minutes and read on envision. The assay buffer contained 150 mM NaCl, 25 mM HEPES pH 7.3, 1 mM DTT, and 0.05% pluronic F-127.
(§3) NUMB RNA or U1A target RNA was titrated starting from 1000 nM in 2× dilution over 9 points against MSI2 5 nM+NUMB-Biotin5′ 1.25 nM. […] NUMB RNA or U1A target RNA was titrated starting from 1000 nM in 2× dilution over 9 points against U1A 5 nM+U1A Target-Biotin5′ 1.25 nM. […] X axis: Log of CTRL RNA (M); Y axis: (Streptavidin XL665/6His TB cryptate ratio)*1000.
(§4) NUMB RNA or U1A target RNA was titrated starting from 1000 nM in 2× dilution over 9 points against MSI2 5 nM+NUMB-Biotin5′ 1.25 nM. […] NUMB RNA or U1A target RNA was titrated starting from 1000 nM in 2× dilution over 9 points against U1A 5 nM+U1A Target-Biotin5′ 1.25 nM. […]

[3] = biological target: T4, MSI2 protein and NUMB-Biotin5′ RNA (Homo sapiens, UniProt Q96DH6); experiment: MSI2:NUMB-CTRL RNA competition assay, HTRF (384 well plate); type: binding; details: competitor RNA titrated from 1000 nM, 2× dilution over 9 points; MSI2 5 nM + NUMB-Biotin5′ 1.25 nM
T4 construct: purchased LS Bio G2396
T4 sequence (Q96DH6 whole entry): as the sequence (Q96DH6 whole entry) above
Experimental: as §2, §3, §4

Which IC50 [1] does the source give for `Cc1cc(C)n2c(SCC(=O)c3cccc(N4CCCC4=O)c3)nnc2n1` [WXHTS0080223, 1-{3-[2-({5,7-dimethyl-[1,2,4]triazolo[4,3-a]pyrimidin-3-yl}sulfanyl)acetyl]phenyl}pyrrolidin-2-one] here?
Its IC50 is 850 nM.

With `CC(=O)N1CCC(NC(=O)c2cc(C)c(C)s2)CC1` [WXHTS0092123, N-(1-acetylpiperidin-4-yl)-4,5-dimethylthiophene-2-carboxamide] as the compound, how does the IC50 [1] read?
The IC50 was 920 nM.

`Cc1ccc(C)n1-c1ccc(SCC(=O)O)cc1` [2-{[4-(2,5-dimethyl-1H-pyrrol-1-yl)phenyl]sulfanyl}acetic acid] was tested. Which “inhibitor of MSI2-RNA interaction identified by the method” value (“inhibitor” below) (MSI2-RNA interaction) did it give?
The value was “inhibitors of MSI2-RNA interaction”.

With `Cc1cc(C)n2c(SCC(=O)c3cccc(N4CCCC4=O)c3)nnc2n1` [1-{3-[2-({5,7-dimethyl-[1,2,4]triazolo[4,3-a]pyrimidin-3-yl}sulfanyl)acetyl]phenyl}pyrrolidin-2-one] as the compound, how does the “inhibitor” value (MSI2-RNA interaction) read?
The value was “inhibitors of MSI2-RNA interaction”.

`Cc1ccc(C)n1-c1sccc1C(=O)N1CC(C(N)=O)Oc2ccccc21` (stereo not drawn) [4-[2-(2,5-dimethyl-1H-pyrrol-1-yl)thiophene-3-carbonyl]-3,4-dihydro-2H-1,4-benzoxazine-2-carboxamide] was tested. Which “inhibitor” value (MSI2-RNA interaction) did it give?
The value was “inhibitors of MSI2-RNA interaction”.

`O=c1cc(CN2CCn3c(nnc3-c3ccccc3)C2)[nH]c2ccnn12` [5-({3-phenyl-5H,6H, 7H,8H-[1,2,4]triazolo[4,3-a]pyrazin-7-yl}methyl)-4H,7H-pyrazolo[1,5-a]pyrimidin-7-one] was tested. Which “inhibitor” value (MSI2-RNA interaction) did it give?
Its value is “inhibitors of MSI2-RNA interaction”.

`CC(=O)N1CCC(NC(=O)c2cc(C)c(C)s2)CC1` [N-(1-acetylpiperidin-4-yl)-4,5-dimethylthiophene-2-carboxamide] was tested. Which “inhibitor” value (MSI2-RNA interaction) did it give?
The value was “inhibitors of MSI2-RNA interaction”.

With `O=c1cc(CN2CCn3c(nnc3-c3ccccc3)C2)[nH]c2ccnn12` [WXHTS0101810, 5-({3-phenyl-5H,6H, 7H,8H-[1,2,4]triazolo[4,3-a]pyrazin-7-yl}methyl)-4H,7H-pyrazolo[1,5-a]pyrimidin-7-one] as the compound, how does the IC50 [1] read?
The IC50 was 850 nM.

For `Cc1ccc(C)n1-c1sccc1C(=O)N1CC(C(N)=O)Oc2ccccc21` (stereo not drawn) [WXHTS0047719, 4-[2-(2,5-dimethyl-1H-pyrrol-1-yl)thiophene-3-carbonyl]-3,4-dihydro-2H-1,4-benzoxazine-2-carboxamide], which IC50 [1] is on record?
Its IC50 is 710 nM.

With `Cc1ccc(C)n1-c1ccc(SCC(=O)O)cc1` [WXHTS0063086, 2-{[4-(2,5-dimethyl-1H-pyrrol-1-yl)phenyl]sulfanyl}acetic acid] as the compound, how does the IC50 [1] read?
Its IC50 is 470 nM.

“NUMB RNA: non-biotinylated NUMB RNA that competes with NUMB-Biotin 5′ RNA to bind the MSI2 protein (UAGGUAGUAGUUUUA; non-biotinylated RNA, further chemistry not given here)” was tested. Which “displacement of the binding signal between U1A protein and U1A target-Biotin5′ RNA” value [2] did it give?
The value was “did not displace the binding signal”.

And the “displacement of the binding signal between MSI2 protein and NUMB-Biotin5′ RNA” value [3]?
Its value is “displaced the binding signal”.
